The text below walks through data of ChEMBL document CHEMBL5357058, “Norterpene Cyclic Peroxides from the Marine Sponge Diacarnus spinipoculum, Inhibitors of Transient Receptor Potential Ankyrin 1” (J Nat Prod, 2024).

For this assay, the target named is Transient receptor potential cation channel subfamily A member 1 (Homo sapiens, UniProt O75762). Nature of the assay: Inhibition of human TRPA1 overexpressed in HEK293 cells assessed as reduction in AITC-induced calcium mobilization preincubated for 5 mins followed by AITC addition by FLIPR assay. Format: cell-based.
Transient receptor potential cation channel subfamily A member 1, sequence (O75762 whole entry): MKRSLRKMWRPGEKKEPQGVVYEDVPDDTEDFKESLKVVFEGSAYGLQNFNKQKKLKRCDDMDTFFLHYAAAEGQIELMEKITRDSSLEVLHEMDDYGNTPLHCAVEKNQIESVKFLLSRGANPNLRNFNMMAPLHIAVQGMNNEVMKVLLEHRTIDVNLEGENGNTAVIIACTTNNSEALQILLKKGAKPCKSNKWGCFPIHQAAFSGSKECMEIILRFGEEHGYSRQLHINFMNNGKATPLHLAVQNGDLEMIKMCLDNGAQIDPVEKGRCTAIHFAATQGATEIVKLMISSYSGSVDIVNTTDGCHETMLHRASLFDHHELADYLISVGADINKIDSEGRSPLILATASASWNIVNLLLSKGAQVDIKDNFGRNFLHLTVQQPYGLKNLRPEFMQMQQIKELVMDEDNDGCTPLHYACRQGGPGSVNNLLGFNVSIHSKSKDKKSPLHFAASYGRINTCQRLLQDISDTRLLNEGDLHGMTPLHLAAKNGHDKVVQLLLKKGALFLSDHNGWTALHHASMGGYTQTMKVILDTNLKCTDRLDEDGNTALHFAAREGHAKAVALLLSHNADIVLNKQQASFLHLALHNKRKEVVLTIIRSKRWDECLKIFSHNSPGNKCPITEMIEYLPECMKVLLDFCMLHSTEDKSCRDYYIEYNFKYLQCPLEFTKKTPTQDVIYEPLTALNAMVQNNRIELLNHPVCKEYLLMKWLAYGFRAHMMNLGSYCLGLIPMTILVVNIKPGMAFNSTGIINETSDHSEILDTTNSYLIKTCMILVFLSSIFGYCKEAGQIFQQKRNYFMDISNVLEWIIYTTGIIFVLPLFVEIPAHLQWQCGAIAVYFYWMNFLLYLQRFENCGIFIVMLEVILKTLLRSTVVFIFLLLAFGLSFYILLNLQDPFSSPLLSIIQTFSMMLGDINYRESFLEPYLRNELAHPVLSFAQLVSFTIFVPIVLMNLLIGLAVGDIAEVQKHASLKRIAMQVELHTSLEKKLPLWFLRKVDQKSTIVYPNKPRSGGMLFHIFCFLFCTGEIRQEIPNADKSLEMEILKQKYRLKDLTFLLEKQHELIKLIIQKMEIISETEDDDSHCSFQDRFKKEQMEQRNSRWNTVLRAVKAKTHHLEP
As usually defined, the IC50 is the concentration needed to halve the response being measured. Take `CC1=C(CC[C@]2(C)CC[C@H]([C@@H](C)C(=O)O)OO2)C(C)(C)CCC1`: the IC50 is over 30 µM. For `C=C1CCCC(C)(C)C1CC[C@]1(C)CC[C@@H]([C@@H](C)C(=O)OC)OO1` (some centres not stated), the IC50 was over 30 µM. As to `COC(=O)[C@H](C)[C@@H]1CC[C@@](C)(CCC2=C(C)CCCC2(C)C)OO1`, the IC50 was 29.3 µM. For the compound `CC1=C(CC/C(C)=C/CC[C@]2(C)CC[C@@H]([C@H](C)C(=O)O)OO2)C(C)(C)CCC1`, the half-maximal inhibitory concentration (IC50) is 5.6 µM. Take `CC1=C(CC/C(C)=C/CC[C@@]2(C)CC[C@@H]([C@H](C)C(=O)O)OO2)C(C)(C)CCC1=O`: the IC50 stood at 15.3 µM.

With `C=C1CCC[C@H]2[C@](C)(CC[C@@]3(C)CC[C@H]([C@@H](C)C(=O)O)OO3)[C@@H](C)CC[C@]12C`, the 50% inhibitory concentration (IC50) was found to be 2 µM. The result for `C=C1CCC[C@H]2[C@](C)(CC[C@@]3(C)CC[C@H]([C@@H](C)C(=O)OC)OO3)[C@@H](C)CC[C@]12C` reads 13.5 µM; that for `COC(=O)[C@H](C)[C@H]1CC[C@@](C)(CCC2=C(C)C(O)CCC2(C)C)OO1` (mixture of isomers), over 30 µM. As to `COC(=O)[C@H](C)[C@@H]1CC[C@@](C)(CCC2=C(C)C(O)CCC2(C)C)OO1` (mixture of isomers), the IC50 was over 30 µM.

Turning to `COC(=O)[C@H](C)[C@@H]1CC[C@@](C)(CCC2=C(C)C(OC)CCC2(C)C)OO1` (mixture of isomers), the half-maximal inhibitory concentration (IC50) is over 30 µM. As to `COC(=O)[C@H](C)[C@H]1CC[C@@](C)(CCC2=C(C)C(OC)CCC2(C)C)OO1` (mixture of isomers), the IC50 was over 30 µM.

With `CC(=O)CCCC(C)(C)C(=O)CC/C(C)=C/CC[C@]1(C)CC[C@H]([C@@H](C)C(=O)O)OO1` [(+)-MUQUBILONE B], the IC50 is over 30 µM. Regarding `COC(=O)[C@H](C)[C@H]1CC[C@@](C)(CCC2=C(C)C(=O)CCC2(C)C)OO1` [DIACARPEROXIDE A], the IC50 came out at 22.1 µM. As to `CC1=C(CC/C(C)=C/CC[C@@]2(C)CC[C@@H]([C@H](C)C(=O)O)OO2)C(C)(C)CCC1` [EPIMUQUBILIN A], the IC50 turned out to be 4.8 µM.

For `COC(=O)[C@H](C)[C@@H]1CC[C@@](C)(CCC2=C(C)C(=O)CCC2(C)C)OO1` [METHYL DIACARNOATE A], the half-inhibitory concentration (IC50) is over 30 µM. The figure for `COC(=O)[C@H](C)[C@H]1CC[C@@](C)(CCC2=C(C)CCCC2(C)C)OO1` [NUAPAPUIN A METHYL ESTER] is 14.1 µM; for `C=C1CCCC(C)(C)C1CC[C@]1(C)CC[C@H]([C@@H](C)C(=O)OC)OO1` (some centres not stated) [NUAPAPUIN B] it is 18.9 µM.
